The nature of this data set: Placebo-controlled trial in early stage idiopathic Parkinson's disease: rotigotine plasma concentrations during titration and maintenance (Example 5). The data set is classed as in vivo, human. As to conditions: for rotigotine plasma concentration, Max / rotigotine plasma concentration, Mean / rotigotine plasma concentration, Median / rotigotine plasma concentration, Min: prior removal. From the text:
Trial periods consisted of a 4-week pre-treatment (washout) period, a 3-week dose escalation period, a 25-week dose maintenance period, and a 4-week follow-up period for a total duration of 36 weeks.

[1] abbreviates: Day 1 MP (maintenance period), 13.5 mg/day.
Where [2] appears, read: Day 15 TP (titration period), 9.0 mg/day.
Where [3] appears, read: Day 57 MP (maintenance period), 13.5 mg/day.
Setting [4] is: Day 113 MP (maintenance period), 13.5 mg/day.
[5] abbreviates: End of MP (maintenance period), 13.5 mg/day.

Take `CCCN(CCc1cccs1)[C@H]1CCc2c(O)cccc2C1` [rotigotine, (6S)-6{propyl[2-(2-thienyl)ethyl]amino}-5,6,7,8-tetrahydro-1-naphthalenol]: the “rotigotine plasma concentration, Max” value amounted to 2.130 ng/mL under setting [1]; 1.580 ng/mL under setting [2]; 2.070 ng/mL under setting [3]; 2.420 ng/mL under setting [4]; 1.800 ng/mL under setting [5]. The “rotigotine plasma concentration, Mean” value was determined as 0.757 ng/mL under setting [1]; 0.508 ng/mL under setting [2]; 0.824 ng/mL under setting [3]; 0.825 ng/mL under setting [4]; 0.788 ng/mL under setting [5]. Further, the “rotigotine plasma concentration, Median” value came out at 0.714 ng/mL under setting [1]; 0.435 ng/mL under setting [2]; 0.702 ng/mL under setting [3]; 0.713 ng/mL under setting [4]; 0.729 ng/mL under setting [5]. For the same compound, the “rotigotine plasma concentration, Min” value was found to be 0.064 ng/mL under setting [1], 0.053 ng/mL under setting [2], 0.122 ng/mL under setting [4] and 0.282 ng/mL under setting [5]. The “rotigotine plasma concentration over the maintenance phase” value (FIG. 10) is listed as “stable concentration”.

The record behind these values is US20060216336A1, “Transdermal therapeutic system for Parkinson's Disease” (priority 2002, published 2006).
